Assay results from patent US12364679B2, “Esters for treatment of ocular inflammatory conditions” (Johnson & Johnson Vision Care, Inc., priority 2011, dated 2025).

What was measured:
[1] = tested on: transepithelial permeability in vitro model; assay: Transepithelial permeability in vitro model (TEP test), fluorescein leakage; assay type: cell-based; conditions: 0.2%, relative to vehicle/controls
Method: The compositions of Examples 1A and 1B and Comparative Example 2A were tested in vitro as follows. A transepithelial permeability in vitro model (TEP test) was used to assess fluorescein leakage (or increased transepithelial permeability) with the free acid in comparison with the ester form of the alpha linolenic acid.

[2] = Uptake by senofilcon contact lenses from IPA solution, gas chromatography; assay type: physicochemical
Method: ALA-EE was dissolved in isopropanol (IPA) at the concentration of 0.05 or 0.5%. Silicone hydrogel contact lenses (senofilcon, commercially available as ACUVUE® OASYS® with […]® Plus lenses) were then allowed to soak in the ALA-EE-containing IPA for up to 1 hour at room temperature, followed by soaking in ALA-EE containing IPA/packing solution (70% IPA/30% packing solution) for up to 1 hour, rinsing in packing solution, and packaging of lenses in the packing solution. ALA-EE uptake by the contact lenses was quantified by gas chromatography.
A comparative silicone hydrogel contact lens that incorporated alpha linolenic acid (ALA), rather than the ester, was prepared following the same protocol as Example 6.

[3] = tested on: "contact lens induced dry eye" subjects; assay: Comfort upon instillation to the eye (non-dispensing clinical studies); conditions: human, in vivo
Method: Preliminary non-dispensing clinical studies were conducted to further assess the use of omega-three fatty acid compositions. A 0.05 wt. % concentration ester version of an omega-three fatty acid was instilled on three “contact lens induced dry eye” subjects (each with at least one sign and one symptom of contact lens induced dry eye) without any acute ocular discomfort or physiological findings. Similarly, a 0.2 wt. % concentration ester version of the omega-three fatty acid was instilled on four “contact lens induced dry eye” subjects without any acute ocular discomfort or physiological findings.

[4] = Uptake by narafilcon B contact lenses from propylene glycol solution, gas chromatography; assay type: physicochemical; conditions: for ALA-EE uptake: narafilcon B
Method: The alpha linolenic acid ethyl ester (ALA-EE) was dissolved in propylene glycol (PG) at concentrations of 0.05 and 0.5%, and silicon hydrogel lenses (Narafilcon B lenses (ACUVUE® TrueEye®)) were hydrated or soaked in the ALA-EE-containing propylene glycol solution for one hour at room temperature, followed by rinsing in DI water and repackaging of lenses in the packing solution. The lenses were packaging in borate buffer packing solution with 50 ppm methyl cellulose and autoclaved at 121° C. for 19 minutes. ALA-EE was quantified by gas chromatography.

[5] = tested on: corneal epithelium tissue construct (HCE construct, SkinEthic); conditions: human, 8 h
Method: (§1) The model uses a corneal epithelium tissue construct (e.g., HCE construct manufactured by SkinEthic).
(§2) The esterified anti-inflammatory lipid mediator dose-responses were then evaluated in the construct, whereby 30 microliters of the rewetting drop was topically applied to the tissue for 8 or 24 hours, and cell viability was then quantified along with a subset of selected potential biomarkers within the tissue culture media.

[6] = tested on: corneal epithelium tissue construct (HCE construct, SkinEthic); assay: Corneal epithelial tissue model, cell viability (MTT), 8 hour exposure; conditions: 0.001 and 0.01%
Method: as §1, §2

Molecule	effect on transepithelial permeability / fluorescein leakage [1]	uptake of ALA by the contact lenses ([2]; 0.05% ALA solution in IPA)	uptake of ALA by the contact lenses ([2]; 0.5% ALA solution in IPA)	response on the eye (acute ocular discomfort) [3]	ALA-EE uptake ([2]; 0.05% ALA-EE solution in IPA)	ALA-EE uptake ([2]; 0.5% ALA-EE solution in IPA)	hydrolysis of ester to free acid form ([2]; senofilcon lens loading from IPA)	hydrolysis of the ester to the acid ([4]; narafilcon B lens, PG loading, autoclaved 121° C.)	ALA-EE uptake ([4]; 0.05% ALA-EE solution)	ALA-EE uptake ([4]; 0.5% ALA-EE solution)	impact on the in vitro endpoint, times less than linolenic acid (ALA) [5]	cytotoxicity in the construct [6]
CC/C=C\C/C=C\C/C=C\CCCCCCCC(=O)O [ALA, alpha-linolenic acid, reference compound]	significant increase in fluorescein leakage	23 micrograms per lens	300 micrograms per lens	–	–	–	–	–	–	–	–	–
CC/C=C\C/C=C\C/C=C\CCCCCCCC(=O)OCC [ALA-EE, ethyl linolenate]	behaved similarly to the vehicle	–	–	lack of acute ocular discomfort	54 micrograms per lens	611 micrograms per lens	did not hydrolyze to the free acid form	no detectable hydrolysis	91 micrograms per lens	721 micrograms per lens	10 times	–
benzalkonium chloride [BAK]	–	–	–	–	–	–	–	–	–	–	–	non-cytotoxic
